Laboratory results: patent publication US7576094B2, “Spiro derivatives as lipoxygenase inhibitors” (Eli Lilly and Company, priority 2004, dated 2009)
pEC50: −log10 of the molar value.

Tested on: dopaminergic neuronal cell line
Assay: High Glutamate-Induced Oxidative Stress Assay (HGOS)
Format: cell-based
Conditions: Mus musculus; 30 mM glutamate, 16 h, Cell Tracker Green; read-out: protection against HGOS cell injury and cell death with an EC50
Excerpt: Protection against redox stress can be evaluated in cell culture using high glutamate induced oxidative stress (HGOS) in mouse dopaminergic cell lines. The cytotoxic effect of glutamate is not due to excitotoxicity, as this cell line is devoid of inotropic glutamate receptors. Rather, the glutamate-induced toxicity of dopaminergic cells is associated with an inhibition of cystne transport which subsequently leads to depletion of intracellular glutathione (GSH) levels (Murphy T. H., et al. Neuron, Vol. 2 (1989), pp. 1547-1558), activation of neuronal 12-Lipoxygenase (Li, Y. et al. Neuron, Vol. 19 (1997), pp. 453-463), increased ROS production (Tan S. et al. J. Cell Biol., Vol. 141 (1998), pp. 1423-1432) and elevated intracellular Ca^2+ (Li, Y. et al. see supra). Some molecules were measured for their ability to protect cells against glutamate-induced stress and the assay is detailed in Examples.
This procedure was used to induce high glutamate-induced oxidative stress (HGOS) in a dopaminergic neuronal cell line. Using this assay the potency and efficacy of test articles against HGOS neuronal cell injury and cell death was established in a high throughput manner.
• Dopaminergic neuronal cell lines • DMEM-No Glucose (Life Technologies Cat # 11966-025) • L-glutamine (Life Technologies Cat # 25030-081) • L-glutamic acid, monosodium salt (Sigma Cat # G5889) • D-glucose (Sigma Cat # G-6151) • 10×HBSS buffer(pH 7.4) (950 mL Pyrogen-free water, 2.44 g/L MgCl2.6H20, 3.73 g/L KCl, 59.58 g/L Hepes, 58.44 g/L NaCI, 1.36 g/L KH2PO4, 1.91 g/L CaCl2.2H2O and pH to […] with HCl) • Cell Tracker Green fluorescent dye (Molecular Probes, Cat # 2925). Prepare a 5 μM solution in pre-warmed HBSS just prior to use. • Sterile 96-well plates pre-coated with poly-D-lysine (Corning Catalog # 3665) • 96-well deep well mother plate, DyNA Block 1000 (VWR Catalog # 40002-008) Neuronal Cells
The cells were seeded into 96-well plates at a density of 2000 per well and left to grow for 72 hours in a 33° C. incubator with 5% CO2 in air atmosphere. […]

Structure (SMILES)	pEC50
Cc1c(C)c2c(c(Cl)c1O)CCC1(CCC1)O2 [5-chloro-7,8-dimethyl-3,4-dihydrospiro[chromene-2,1′-cyclobutan]-6-ol]	> 6.00
Cc1c(C)c2c(c(C)c1O)C1(CCC1)CCS2 [5′,7′,8′-trimethyl-2′,3′-dihydrospiro[cyclobutane, 1,4′-thiochromen]-6′-ol]	> 6.00
Cc1c(C)c2c(c(C)c1O)CCC1(CC1)O2 [5,7,8-trimethyl-3,4-dihydrospiro[chromene-2,1′-cyclopropan]-6-ol]	> 6.00
